Data: article PMC7824442, “In Escherichia coli Ammonia Inhibits Cytochrome bo3 But Activates Cytochrome bd-I” (Antioxidants, 2020)

Assays:
[1] = target: T1, cytochrome bd-I (Escherichia coli, UniProt P0ABJ9); experiment: UV-visible absorption titration of the isolated oxidized enzyme at pH […] (Soret region, […] nm); activation of O2 reductase activity also shown; type: binding
T1 construct: gene cydA; isolated cytochrome bd-I; with other subunits of the four-subunit cytochrome bd-I complex

[2] = target: T2, cytochrome bo3 (Escherichia coli, UniProt P0ABI8); experiment: UV-visible absorption titration of the isolated oxidized enzyme at pH […] (Soret region, […] nm); inhibition of O2 reductase activity also shown; type: binding
T2 construct: gene cyoB; isolated four-subunit His-tagged cytochrome bo3; with other subunits of the four-subunit cytochrome bo3 complex
T2 sequence (P0ABJ1 25-315): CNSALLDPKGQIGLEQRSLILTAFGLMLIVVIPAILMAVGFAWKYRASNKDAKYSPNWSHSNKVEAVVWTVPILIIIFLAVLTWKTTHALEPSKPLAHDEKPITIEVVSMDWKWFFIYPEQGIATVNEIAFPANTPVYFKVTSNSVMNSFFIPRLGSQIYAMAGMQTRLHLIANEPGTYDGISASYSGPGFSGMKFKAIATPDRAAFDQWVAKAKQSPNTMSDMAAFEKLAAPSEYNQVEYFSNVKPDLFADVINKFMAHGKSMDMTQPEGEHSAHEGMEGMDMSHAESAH
T2 sequence (P0ABJ6 whole entry, further chain): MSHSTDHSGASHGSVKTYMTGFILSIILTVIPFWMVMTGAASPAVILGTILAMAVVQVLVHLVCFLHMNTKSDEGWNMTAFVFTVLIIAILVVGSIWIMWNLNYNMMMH
T2 sequence (P0ABI8 whole entry): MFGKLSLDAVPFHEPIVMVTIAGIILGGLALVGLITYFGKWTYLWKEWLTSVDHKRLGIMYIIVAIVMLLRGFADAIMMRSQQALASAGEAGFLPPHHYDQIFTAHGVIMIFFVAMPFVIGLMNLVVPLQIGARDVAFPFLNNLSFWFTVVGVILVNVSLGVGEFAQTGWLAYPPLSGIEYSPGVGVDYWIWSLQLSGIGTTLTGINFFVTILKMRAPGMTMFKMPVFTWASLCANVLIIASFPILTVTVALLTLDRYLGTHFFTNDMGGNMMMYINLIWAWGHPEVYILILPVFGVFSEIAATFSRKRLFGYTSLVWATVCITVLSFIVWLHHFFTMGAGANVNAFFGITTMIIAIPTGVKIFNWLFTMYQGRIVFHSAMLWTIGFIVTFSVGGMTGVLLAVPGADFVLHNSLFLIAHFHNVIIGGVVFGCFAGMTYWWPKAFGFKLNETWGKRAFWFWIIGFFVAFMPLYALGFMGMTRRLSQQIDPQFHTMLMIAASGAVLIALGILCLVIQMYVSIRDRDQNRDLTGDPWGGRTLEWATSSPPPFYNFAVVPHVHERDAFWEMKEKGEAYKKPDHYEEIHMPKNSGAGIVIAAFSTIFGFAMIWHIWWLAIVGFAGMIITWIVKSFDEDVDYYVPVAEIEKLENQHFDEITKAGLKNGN
T2 sequence (P0ABJ3 whole entry, further chain): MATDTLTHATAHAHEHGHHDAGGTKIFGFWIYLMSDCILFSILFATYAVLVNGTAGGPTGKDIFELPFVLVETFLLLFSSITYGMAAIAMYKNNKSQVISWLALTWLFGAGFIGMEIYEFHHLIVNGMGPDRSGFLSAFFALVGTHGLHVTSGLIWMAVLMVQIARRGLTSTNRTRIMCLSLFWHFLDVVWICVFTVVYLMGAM

T1 sequence (P0ABK2 whole entry): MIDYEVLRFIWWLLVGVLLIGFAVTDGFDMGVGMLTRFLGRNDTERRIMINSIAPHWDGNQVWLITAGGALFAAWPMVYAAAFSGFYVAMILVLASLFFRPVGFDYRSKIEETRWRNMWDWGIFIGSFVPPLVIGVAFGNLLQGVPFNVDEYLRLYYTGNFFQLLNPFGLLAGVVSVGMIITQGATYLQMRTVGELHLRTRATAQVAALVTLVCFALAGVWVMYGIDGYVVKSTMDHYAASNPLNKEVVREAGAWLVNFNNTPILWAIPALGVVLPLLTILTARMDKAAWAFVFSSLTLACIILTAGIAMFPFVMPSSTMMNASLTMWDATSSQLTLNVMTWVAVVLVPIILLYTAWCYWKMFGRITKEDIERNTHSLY
T1 sequence (P0ABJ9 whole entry): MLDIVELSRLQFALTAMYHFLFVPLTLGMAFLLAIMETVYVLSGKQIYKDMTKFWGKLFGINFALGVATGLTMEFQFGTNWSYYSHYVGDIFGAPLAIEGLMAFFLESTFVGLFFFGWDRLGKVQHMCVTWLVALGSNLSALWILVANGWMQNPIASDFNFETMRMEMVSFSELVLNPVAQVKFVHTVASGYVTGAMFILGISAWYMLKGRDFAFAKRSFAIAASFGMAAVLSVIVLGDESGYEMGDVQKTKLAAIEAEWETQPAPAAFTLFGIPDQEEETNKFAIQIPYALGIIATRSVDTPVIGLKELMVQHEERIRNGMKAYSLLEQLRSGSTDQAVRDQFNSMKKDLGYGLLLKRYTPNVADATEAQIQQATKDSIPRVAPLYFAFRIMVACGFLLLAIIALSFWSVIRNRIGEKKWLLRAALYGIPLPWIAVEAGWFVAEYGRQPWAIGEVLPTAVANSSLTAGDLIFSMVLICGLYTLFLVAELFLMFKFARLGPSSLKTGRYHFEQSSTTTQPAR

## N [ammonia]
[1]
  Kd: 7.2 ± 1.4 mM
[2]
  Kd: 4.9 ± 0.5 mM
